Data set [1] in a line: Chemical stability on purification and isolation. The class given is physicochemical. The following applies: purification by normal and reverse-phase chromatography.
The subject of data set [2] is SNAP-tagged CXCR2-tsNanoLuc HEK293. The experiment in a line: Live cell imaging of fluorescent ligand binding to SNAP-tagged CXCR2-tsNanoLuc HEK293. The class given is cell-based, human. The following applies: 1 μM 11a, 10 min at 37 °C, specific, displaced by 10 μM 2. How it is done: HEK 293 cells expressing SNAP-CXCR2-tsNanoLuc were seeded on black, clear bottom, poly-D-lysine-coated 96-well plates (Greiner 655097) at a density of 30,000 cells/well and allowed to grow overnight. Post-incubation, growth media were replaced with Hepes balances salt solution supplemented with 0.1% BSA (HBSS +0.1% BSA), 0.1 μM SNAP-surface AF488, 2 μg/mL Hoechst 33342 nuclear stain (H33342), and either HBSS +0.1% BSA or 10 μM (R)-navarixin (2).

A further data set concerns the target T1, CXCR1 (Homo sapiens, UniProt P25024).
T1 construct: expressed in transfected cells; membranes
T1 sequence (P25024 1-350): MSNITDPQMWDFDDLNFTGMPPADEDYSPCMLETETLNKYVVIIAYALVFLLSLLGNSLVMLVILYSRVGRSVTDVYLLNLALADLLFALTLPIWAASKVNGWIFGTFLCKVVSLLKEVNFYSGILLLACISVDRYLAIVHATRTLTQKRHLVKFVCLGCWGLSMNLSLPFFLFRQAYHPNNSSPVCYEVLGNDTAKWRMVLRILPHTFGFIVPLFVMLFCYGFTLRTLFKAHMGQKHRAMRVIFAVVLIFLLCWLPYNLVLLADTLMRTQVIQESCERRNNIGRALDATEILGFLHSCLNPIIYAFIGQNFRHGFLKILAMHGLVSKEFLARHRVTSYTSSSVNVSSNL
The data set is described as follows: CXCR1-NanoLuc NanoBRET saturation binding in membranes. Conditions: result in words. As to the method:
NanoBRET assays were carried out in OptiPlate-384 white well microplates (product number: 6007290, PerkinElmer LAS Ltd., UK) and used 25 mM HEPES, 1% DMSO, 0.1 mg/mL Saponin, 0.2 mg Pluronic acid F127, 1 mM MgCl2 and 0.1% BSA (pH 7.4) assay buffer. Both saturation and competition assays employed 1 μg/well HEK 293 SNAP-CXCR2-NanoLuc or SNAP-CXCR1-NanoLuc cell membranes for characterization of fluorescent ligand binding and employed 100 nM or 10 μM R-navarixin (2) to define non-specific binding (NSB). […] Membranes were incubated with furimazine at a 1/660 dilution for 5 min prior to addition to the assay plate, allowing for equilibration of luminescence output. NanoBRET was monitored every 15 s for 60 min at 37 °C measuring Nanoluciferase output (450 nm) and BODIPY 630–650 output (630 nm [610-LP filter]), generating a BRET ratio (630 nm/450 nm), using a BMG PHERAstar FS (BMG Labtech). Collected data was converted to specific binding measurements through subtraction of NSB data and analyzed by endpoint saturation analysis, allowing determination of ligand dissociation constant (KD) through [drawing 1] 1

SMILES strings stand for the structures.

Take `CC[C@@H](Nc1c(Nc2cccc(C(=O)N(C)CCNC(=O)OCC3c4ccccc4-c4ccccc43)c2O)c(=O)c1=O)c1ccc(C)o1` [10b, (9H-Fluoren-9-yl)methyl(R)-(2-(2-hydroxy-N-methyl-3-((2-((1-(5-methylfuran-2-yl)propyl)amino)-3,4-dioxocyclobut-1-en-1-yl)amino)benzamido)ethyl)carbamate]: in data set [1], the chemical stability entry is on record as “chemically unstable”.
As for `CC[C@@H](Nc1c(Nc2cccc(C(=O)NCCNC(=O)CCCCCNC(=O)COc3ccc(/C=C/C4=[N+]5C(=Cc6ccc(-c7cccs7)n6[B-]5(F)F)C=C4)cc3)c2O)c(=O)c1=O)c1ccc(C)o1` [11a, (R,E)-N-(2-(6-(2-(4-(2-(5,5-Difluoro-7-(thiophen-2-yl)-5H-4λ4,5λ4-dipyrrolo[1,2-c:2’,1’-f][1,3,2]diazaborinin-3-yl)vinyl)phenoxy)acetamido)hexanamido)ethyl)-2-hydroxy-3-((2-((1-(5-methylfuran-2-yl)propyl)amino)-3,4-dioxocyclobut-1-en-1-yl)amino)benzamide], the “fluorescent labelling of cells” value in data set [2] was “both cell surface and intracellular endosomal fluorescent labelling”. Also, the CXCR1 specific binding result on CXCR1 is recorded as “no CXCR1 specific binding”.
`CC[C@@H](Nc1c(Nc2cccc(C(=O)NCCNC(=O)CNC(=O)CCCCCNC(=O)COc3ccc(/C=C/C4=[N+]5C(=Cc6ccc(-c7cccs7)n6[B-]5(F)F)C=C4)cc3)c2O)c(=O)c1=O)c1ccc(C)o1` [11c, (R,E)-N-(2-(2-(6-(2-(4-(2-(5,5-Difluoro-7-(thiophen-2-yl)-5H-4λ4,5λ4-dipyrrolo[1,2-c:2′,1′-f][1,3,2]diazaborinin-3-yl)vinyl)phenoxy)acetamido)hexanamido)acetamido)ethyl)-2-hydroxy-3-((2-((1-(5-methylfuran-2-yl)propyl)amino)-3,4-dioxocyclobut-1-en-1-yl)amino)benzamide]: the CXCR1 specific binding result at CXCR1 is listed as “no CXCR1 specific binding”.
Same read-out and setting: in the case of `CC[C@@H](Nc1c(Nc2cccc(C(=O)NCCNC(=O)CCNC(=O)CCCCCNC(=O)COc3ccc(/C=C/C4=[N+]5C(=Cc6ccc(-c7cccs7)n6[B-]5(F)F)C=C4)cc3)c2O)c(=O)c1=O)c1ccc(C)o1` [11e, (R,E)-N-(2-(3-(6-(2-(4-(2-(5,5-Difluoro-7-(thiophen-2-yl)-5H-4λ4,5λ4-dipyrrolo[1,2-c:2′,1′-f][1,3,2]diazaborinin-3-yl)vinyl)phenoxy)acetamido)hexanamido)propanamido)ethyl)-2-hydroxy-3-((2-((1-(5-methylfuran-2-yl)propyl)amino)-3,4-dioxocyclobut-1-en-1-yl)amino)benzamide] it was “no CXCR1 specific binding”.
